Test results taken from patent publication US5521216A, “Chromone derivative, and aldose reductase inhibitor comprising said compound as active ingredient” (Tsumura & Co., priority 1992, dated 1996).

Columns and labels:
Aldose reductase [1] = biological target: T1, Aldose reductase (Rattus norvegicus, UniProt P07943); experiment: Aldose reductase activity measurement (in vivo), sorbitol in sciatic nerves of STZ diabetic rats; design: species or system Wistar male rats; settings: sciatic nerve sorbitol, oral for 2 weeks, 100 mg/kg (other compounds stated at 30 mg/kg)
T1 construct: The crystalline lenses were homogenized in 135 mM sodium-potassium-phosphate buffer; from tissue; host or cells: crystalline lens of 6 week-old male Wistar rats (30,000 rpm supernatant)
Method: <Aldose reductase activity measurement (in vivo)>
A solution of streptozotocin (STZ) in 10 mM citrate buffer (pH 4.5) was administered intravenously to the tails of 6 week-old Wistar male rats in a dosage of 65 mg/kg. 48 hours thereafter, blood was collected from the carotid arteries of the rats. Rats with a blood sugar level of higher than 200 mg/dl were classified as diabetic rats, among which rats with a persistent high level of blood sugar were employed in the experiment. The blood sugar level was determined by the glucose oxidase method. […]
After 2-week administration, the sciatic nerves were removed from the rat under ether anesthesia, then weighed, and stored at -20° C.
The content of sorbitol in the sciatic nerves was determined as follows.
The sciatic nerves were extracted at 100° C. for 20 min. with 1 ml purified water containing 10 μg/ml arabinitol, and then 0.2 ml of 0.2M barium hydroxide and 0.2 ml of 0.19M zinc sulfate were added thereto. The sample was centrifuged (3000 rpm, 30 min.) and the supernatant was evaporated to dryness. The residue thus obtained was trimethysilylated and was then analyzed by gas chromatography.
Sorbitol is an intermediate which occurs upon the conversion of glucose into fructose by aldose reductase and is accumulated together with fructose in the crystalline lenses and sciatic nerves particularly under a high level of blood sugar. […]

Aldose reductase [2] = biological target: T1, Aldose reductase; experiment: Aldose reductase activity measurement (in vitro), rat crystalline lens enzyme, NADP fluorescence; assay type: biochemical, Wistar male rats; settings: 20 mM glucose substrate, 30 min, 30° C., pH 7.0, read-out: 50% inhibition concentration [IC50 (M)]
Method: <Aldose reductase activity measurement (in vitro)>
6 week-old Wistar male rats were sacrificed under ether anesthesia and immediately the crystalline lenses were scissored and stored at -20° C.
The crystalline lenses were homogenized in 135 mM sodium-potassium-phosphate buffer, pH 7.0, and centrifuged for 30 min. at 30,000 rpm. The supernatant was used as an aldose-reductase solution. All the above procedures were carried out at 4° C. and the enzyme solution was stored at -20° C.
Aldose reductase activity was determined according to the method as described by Dufrane et al. (Biochemical Medicine, 32, 99-105 (1984)), as follows.
100 μl of the above enzyme solution and 100 μl of a sample solution prepared by dissolving a compound obtained in the following examples to a final concentration of from 1.0×10^-5 to 4.0×10^-7 M in dimethylsulfoxide (DMSO) were added to 800 μl of 135 mM sodium-potassium-phosphate buffer, pH 7.0, containing 100 mM lithium sulfate, 0.03 mM NADPH (reduced nicotinamide adenine dinucleotide phosphate), and 20 mM glucose as a substrate. The sample was allowed to react for 30 min. at 30° C. Then the reaction was stopped by addition of 0.3 ml of 0.5N hydrochloric acid. By adding 1 ml of 6N sodium hydroxide containing 10 mM imidazole, the NADP (oxidized nicotinamide adenine dinucleotide phosphate) formed in the above reaction was converted into a fluorescent substance, and 30 min. thereafter, the sample was measured for fluorescence intensity at the fluorescence wavelength of 460 nm (excitation wavelength: 360 nm) using fluorescence photometer F-4000 (manufactured by Hitachi, Ltd.) at room temperature. A sample containing DMSO in place of the present compound was used as a control group, and its fluorescence intensity was determined in the same manner as described above.
Aldose reductase is an enzyme that converts DL-glyceraldehyde or glucose into polyol in the presence of […] as a coenzyme, and as the reaction proceeds, NADPH is converted into NADP.

| SMILES | Repression (%) (Aldose reductase [1]) | IC50 (Aldose reductase [2]) [M] |
| --- | --- | --- |
| COc1c(O)cc2oc(Oc3ccc(O)cc3)cc(=O)c2c1O [Capillarisin] | 18.9 | – |
| CC(C)Oc1cc(OC(C)C)c2c(=O)cc(Sc3ccc(O)cc3)oc2c1 [Example 1, 2-(4-hydroxyphenylthio)-5,7-di-isopropoxychromone] | – | 1.8e-08 |
| COc1cc(OC(C)C)cc2oc(Sc3ccc(O)cc3)cc(=O)c12 [Example 6, 2-(4-hydroxyphenylthio)-7-isopropoxy-5-methoxychromone] | – | 8e-08 |

Results, then the compound that gave them:

| Repression (%) (Aldose reductase [1]) | IC50 (Aldose reductase [2]) [M] | SMILES |
| --- | --- | --- |
| – | 3.2e-07 | O=c1cc(Sc2ccc(O)cc2)oc2cc(O)cc(O)c12 [Example 4, 5,7-dihydroxy-2-(4-hydroxyphenylthio)chromone] |
| – | 2.3e-07 | CC(C)Oc1cc(O)c2c(=O)cc(Sc3ccc(O)cc3)oc2c1 [Example 5, 5-hydroxy-2-(4-hydroxyphenylthio)-7-isopropoxychromone] |
